Source: patent publication US11420973B2, “Amide substituted indole compounds useful as TLR inhibitors” (BRISTOL-MYERS SQUIBB COMPANY, priority 2017, dated 2022)
Structures can show the parent of a compound that is named as a salt. Where two headings read alike, the source gives them in different places.

Columns and labels:
human TLR8 = human TLR8 (Homo sapiens (Human), UniProt Q9NR97); test: TLR8 inhibition reporter assay (HEK-Blue SEAP reporter, R848 stimulation);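 note: SEAP driven by IFN-β minimal promoter with NF-κB and AP-1 sites, 22 h incubation, compounds 0.05 nM–50 µM, inhibition scaled between agonist plus DMSO and reference inhibitor wells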
Chain of human TLR8 (Q9NR97 27-1041): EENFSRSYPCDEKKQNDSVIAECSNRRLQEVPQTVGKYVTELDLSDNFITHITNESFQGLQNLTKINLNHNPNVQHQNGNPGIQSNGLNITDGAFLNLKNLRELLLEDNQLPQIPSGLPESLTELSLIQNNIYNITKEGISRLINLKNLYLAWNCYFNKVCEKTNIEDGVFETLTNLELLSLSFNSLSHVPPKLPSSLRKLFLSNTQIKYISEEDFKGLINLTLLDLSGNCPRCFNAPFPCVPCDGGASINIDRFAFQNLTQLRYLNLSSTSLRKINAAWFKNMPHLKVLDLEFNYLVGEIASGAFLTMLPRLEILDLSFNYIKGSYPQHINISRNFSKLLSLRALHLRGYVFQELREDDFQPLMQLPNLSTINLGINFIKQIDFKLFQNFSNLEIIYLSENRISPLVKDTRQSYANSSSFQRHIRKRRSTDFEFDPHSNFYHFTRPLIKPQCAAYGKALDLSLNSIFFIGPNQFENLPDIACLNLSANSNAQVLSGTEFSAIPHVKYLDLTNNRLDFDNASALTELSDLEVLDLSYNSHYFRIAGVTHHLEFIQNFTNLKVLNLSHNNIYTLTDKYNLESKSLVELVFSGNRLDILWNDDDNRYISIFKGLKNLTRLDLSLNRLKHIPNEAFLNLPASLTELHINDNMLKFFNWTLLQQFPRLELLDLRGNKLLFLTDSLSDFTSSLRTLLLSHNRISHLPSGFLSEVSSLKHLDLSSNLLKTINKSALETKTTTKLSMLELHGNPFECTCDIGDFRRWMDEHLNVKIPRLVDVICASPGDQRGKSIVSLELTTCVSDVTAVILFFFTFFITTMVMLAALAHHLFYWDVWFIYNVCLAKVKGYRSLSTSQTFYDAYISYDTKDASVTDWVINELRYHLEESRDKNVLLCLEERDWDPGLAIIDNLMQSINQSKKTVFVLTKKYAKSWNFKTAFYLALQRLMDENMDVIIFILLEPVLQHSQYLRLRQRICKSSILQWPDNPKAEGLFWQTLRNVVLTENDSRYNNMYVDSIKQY
Protocol: HEK-Blue™-cells (Invivogen) overexpressing human TLR7, TLR8 or TLR9 receptors were used for screening inhibitors of these receptors using an inducible SEAP (secreted embryonic alkaline phosphatase) reporter gene under the control of the IFN-β minimal promoter fused to five NF-κB and AP-1-binding sites. Briefly, cells are seeded into Greiner 384 well plates (15000 cells per well for TLR7, 20,000 for TLR8 and 25,000 for TLR9) and then treated with test compounds in DMSO to yield a final dose response concentration range of 0.05 nM-50 μM. After a 30 minute compound pre-treatment at room temperature, the cells are then stimulated with a TLR7 ligand (gardiquimod at a final concentration of 7.5 μM), TLR8 ligand (R848 at a final concentration of 15.9 μM) or TLR9 ligand (ODN2006 at a final concentration of 5 nM) to activate NF-κB and AP-1 which induce the production of SEAP. After a 22 hour incubation at 37° C., 5% CO2, SEAP levels are determined with the addition of HEK-Blue™ Detection reagent (Invivogen), a cell culture medium that allows for detection of SEAP, according to manufacturer's specifications.

human TLR7 = human TLR7 (Homo sapiens (Human), UniProt Q9NYK1); test: TLR7 inhibition reporter assay (HEK-Blue SEAP reporter, gardiquimod stimulation); assay type: cell-based; settings: HEK-Blue cells overexpressing human TLR7, gardiquimod 7.5 μM
Chain of human TLR7 (Q9NYK1 27-1049): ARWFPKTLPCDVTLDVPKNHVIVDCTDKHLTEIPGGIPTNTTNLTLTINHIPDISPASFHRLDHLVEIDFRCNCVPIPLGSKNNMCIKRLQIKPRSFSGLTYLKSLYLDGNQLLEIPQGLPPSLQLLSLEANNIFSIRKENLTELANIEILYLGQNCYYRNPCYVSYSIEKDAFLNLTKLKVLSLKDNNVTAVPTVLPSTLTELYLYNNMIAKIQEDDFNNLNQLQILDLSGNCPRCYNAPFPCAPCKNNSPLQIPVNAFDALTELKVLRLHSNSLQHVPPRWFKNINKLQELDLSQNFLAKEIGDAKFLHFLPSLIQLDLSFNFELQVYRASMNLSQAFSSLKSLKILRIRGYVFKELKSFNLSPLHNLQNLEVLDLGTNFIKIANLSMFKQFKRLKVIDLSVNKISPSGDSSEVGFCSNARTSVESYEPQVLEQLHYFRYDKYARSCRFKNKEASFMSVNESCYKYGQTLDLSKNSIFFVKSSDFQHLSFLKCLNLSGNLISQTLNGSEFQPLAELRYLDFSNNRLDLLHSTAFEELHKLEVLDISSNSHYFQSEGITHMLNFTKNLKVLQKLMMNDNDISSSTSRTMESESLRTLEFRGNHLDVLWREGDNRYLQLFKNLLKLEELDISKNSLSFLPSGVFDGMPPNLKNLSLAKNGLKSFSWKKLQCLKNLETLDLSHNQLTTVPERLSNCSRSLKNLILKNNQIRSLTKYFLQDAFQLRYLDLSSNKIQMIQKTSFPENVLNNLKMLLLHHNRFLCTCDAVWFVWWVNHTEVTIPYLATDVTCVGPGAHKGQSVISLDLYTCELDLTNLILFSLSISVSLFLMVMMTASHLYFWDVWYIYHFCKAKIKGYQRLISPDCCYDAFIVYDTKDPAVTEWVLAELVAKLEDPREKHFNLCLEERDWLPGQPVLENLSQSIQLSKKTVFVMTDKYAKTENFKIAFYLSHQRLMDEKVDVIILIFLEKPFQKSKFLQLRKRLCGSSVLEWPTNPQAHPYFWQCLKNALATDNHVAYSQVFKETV

human TLR9 = human TLR9 (Homo sapiens (Human), UniProt Q9NR96); test: TLR9 inhibition reporter assay (HEK-Blue SEAP reporter, ODN2006 stimulation);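 note: SEAP reporter under IFN-β minimal promoter with five NF-κB and AP-1 sites, 22 h incubation, compounds 0.05 nM–50 µM, inhibition relative to agonist plus DMSO versus known inhibitor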
Chain of human TLR9 (Q9NR96 26-1032): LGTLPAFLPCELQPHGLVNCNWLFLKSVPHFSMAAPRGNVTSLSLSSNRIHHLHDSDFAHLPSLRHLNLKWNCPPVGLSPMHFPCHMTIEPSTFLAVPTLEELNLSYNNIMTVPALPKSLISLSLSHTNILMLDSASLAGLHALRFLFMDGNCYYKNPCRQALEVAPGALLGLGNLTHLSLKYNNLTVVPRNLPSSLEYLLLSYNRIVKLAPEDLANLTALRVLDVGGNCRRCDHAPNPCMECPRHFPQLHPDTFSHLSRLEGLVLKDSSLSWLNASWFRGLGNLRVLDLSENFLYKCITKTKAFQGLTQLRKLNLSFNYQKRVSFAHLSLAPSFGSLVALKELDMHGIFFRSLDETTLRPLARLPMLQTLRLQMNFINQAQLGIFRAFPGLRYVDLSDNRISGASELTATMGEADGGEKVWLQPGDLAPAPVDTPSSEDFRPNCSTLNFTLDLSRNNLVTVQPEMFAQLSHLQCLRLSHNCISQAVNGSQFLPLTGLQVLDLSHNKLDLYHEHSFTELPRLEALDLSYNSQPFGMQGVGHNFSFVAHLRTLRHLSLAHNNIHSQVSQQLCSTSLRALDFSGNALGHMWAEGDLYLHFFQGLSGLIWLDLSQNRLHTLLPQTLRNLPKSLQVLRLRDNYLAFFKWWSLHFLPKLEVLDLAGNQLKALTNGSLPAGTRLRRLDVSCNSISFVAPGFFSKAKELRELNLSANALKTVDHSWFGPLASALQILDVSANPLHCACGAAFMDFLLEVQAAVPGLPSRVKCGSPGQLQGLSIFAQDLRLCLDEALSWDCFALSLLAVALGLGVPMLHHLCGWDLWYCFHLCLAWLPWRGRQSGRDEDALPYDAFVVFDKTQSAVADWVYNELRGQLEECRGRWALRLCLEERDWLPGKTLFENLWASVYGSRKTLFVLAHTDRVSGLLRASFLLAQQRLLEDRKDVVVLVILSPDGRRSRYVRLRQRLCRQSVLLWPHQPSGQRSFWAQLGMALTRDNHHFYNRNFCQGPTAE

[1] = read-out: TLR8 IC50, HEK-Blue cells overexpressing human TLR8, R848 15.9 μM, SEAP reporter
[2] = read-out: TLR9 IC50, HEK-Blue cells overexpressing human TLR9, ODN2006 5 nM, SEAP reporter

| Compound | IC50 (human TLR8; [1]) | IC50 (human TLR7) | IC50 (human TLR9; [2]) | IC50 (human TLR8) | IC50 (human TLR9) |
| --- | --- | --- | --- | --- | --- |
| CCc1c(-c2ccc(OC)c(OC)c2)[nH]c2ccc(C(=O)NCCC(N)=O)cc12 [Example 68, N-(3-amino-3-oxopropyl)-2-(3,4-dimethoxyphenyl)-3-ethyl-1H-indole-5-carboxamide] | 277 nM | 1710 nM | > 50000 nM |  |  |
| CCc1c(-c2ccc(OC)c(OC)c2)[nH]c2ccc(C(=O)NCCO)cc12 [Example 69, 2-(3,4-dimethoxyphenyl)-3-ethyl-N-(2-hydroxyethyl)-1H-indole-5-carboxamide] | 274 nM | 968 nM | > 50000 nM |  |  |
| CCc1c(-c2ccc(OC)c(OC)c2)[nH]c2ccc(C(=O)NCCC(C)(C)NS(C)(=O)=O)cc12 [Example 71, 2-(3,4-dimethoxyphenyl)-3-ethyl-N-(3-methyl-3-(methylsulfonamido)butyl)-1H-indole-5-carboxamide] | 439 nM | 1630 nM | > 50000 nM |  |  |
| CCc1c(-c2ccc(OC)c(OC)c2)[nH]c2ccc(C(=O)NCC(C)(C)CO)cc12 [Example 72, 2-(3,4-dimethoxyphenyl)-3-ethyl-N-(3-hydroxy-2,2-dimethylpropyl)-1H-indole-5-carboxamide] | 408 nM | 579 nM | > 50000 nM |  |  |
| CCc1c(-c2ccc(OC)c(OC)c2)[nH]c2ccc(C(=O)N(CC)CCN(C)C)cc12 [Example 73, 2-(3,4-dimethoxyphenyl)-N-(2-(dimethylamino)ethyl)-N,3-diethyl-1H-indole-5-carboxamide] | 4 nM | 25 nM | 4340 nM |  |  |
| CCc1c(-c2ccc(OC)c(OC)c2)[nH]c2ccc(C(=O)N(C)CCCN(C)C)cc12 [Example 74, 2-(3,4-dimethoxyphenyl)-N-(3-(dimethylamino)propyl)-3-ethyl-N-methyl-1H-indole-5-carboxamide] | 16 nM | 156 nM | 5880 nM |  |  |
| CCc1c(-c2ccc(OC)c(OC)c2)[nH]c2ccc(C(=O)NCCCN(C)C)cc12 [Example 75, 2-(3,4-dimethoxyphenyl)-N-(3-(dimethylamino)propyl)-3-ethyl-1H-indole-5-carboxamide] | 7.6 nM | 124 nM | 250 nM |  |  |
| CCc1c(-c2ccc(OC)c(OC)c2)[nH]c2ccc(C(=O)N(C)CCN(C)C)cc12 [Example 76, 2-(3,4-dimethoxyphenyl)-N-(2-(dimethylamino)ethyl)-3-ethyl-N-methyl-1H-indole-5-carboxamide] | 3.9 nM | 56 nM | 4890 nM |  |  |
| CCc1c(-c2ccc(OC)c(OC)c2)[nH]c2ccc(C(=O)N(CCOC)CCOC)cc12 [Example 77, 2-(3,4-dimethoxyphenyl)-3-ethyl-N,N-bis(2-methoxyethyl)-1H-indole-5-carboxamide] | 480 nM | 714 nM | 40300 nM |  |  |
| CCc1c(-c2ccc(OC)c(OC)c2)[nH]c2ccc(C(=O)N3CC4CNCC4C3)cc12 (stereo not drawn) [Example 79, (2-(3,4-dimethoxyphenyl)-3-ethyl-1H-indol-5-yl)(hexahydropyrrolo[3,4-c]pyrrol-2(1H)-yl)methanone] | 124 nM | 296 nM | 1050 nM |  |  |
| CCc1c(-c2ccc(OC)c(OC)c2)[nH]c2ccc(C(=O)N3CCN(C4CCN(C(C)C)CC4)CC3)cc12 [Example 80, (2-(3,4-dimethoxyphenyl)-3-ethyl-1H-indol-5-yl)(4-(I-isopropylpiperidin-4-yl)piperazin-1-yl) methanone] | 2.9 nM | 177 nM | 836 nM |  |  |
| CCc1c(-c2ccc(OC)c(OC)c2)[nH]c2ccc(C(=O)N3CC4CN(C(C)C)CC4C3)cc12 (stereo not drawn) [Example 81, (2-(3,4-dimethoxyphenyl)-3-ethyl-1H-indol-5-yl)(5-isopropylhexahydropyrrolo[3,4-c]pyrrol-2(1H)-yl)methanone] | 87 nM | 418 nM | 1920 nM |  |  |
| CCc1c(-c2ccc(OC)c(OC)c2)[nH]c2ccc(C(=O)N3CC4CN(CC(=O)NC)CC4C3)cc12 (stereo not drawn) [Example 82, 2-(5-(2-(3,4-dimethoxyphenyl)-3-ethyl-1H-indole-5-carbonyl)hexahydropyrrolo[3,4-c]pyrrol-2(1H)-yl)-N-methylacetamide] | 446 nM | 515 nM | 21900 nM |  |  |
| CCc1c(-c2ccnc3[nH]ccc23)[nH]c2ccc(C(=O)N(CC)CCN(C)C)cc12 [Example 83, N-(2-(dimethylamino)ethyl)-N,3-diethyl-2-(1H-pyrrolo[2,3-b]pyridin-4-yl)-1H-indole-5-carboxamide] | 0.5 nM | 16 nM | 2350 nM |  |  |
| CCc1c(-c2ccnc(C)c2)[nH]c2ccc(C(=O)N(CC)CCN(C)C)cc12 [Example 84, N-(2-(dimethylamino)ethyl)-N,3-diethyl-2-(2-methylpyridin-4-yl)-1H-indole-5-carboxamide] | 2.1 nM | 49 nM | 2520 nM |  |  |
| CCc1c(-c2ccnc(C)c2)[nH]c2ccc(C(=O)N3CC4CNCC4C3)cc12 (stereo not drawn) [Example 85, (3-ethyl-2-(2-methylpyridin-4-yl)-1H-indol-5-yl)(hexahydropyrrolo[3,4-c]pyrrol-2(1H)-yl)methanone] | 160 nM | 776 nM | 386 nM |  |  |
| CCc1c(-c2ccnc(C)c2)[nH]c2ccc(C(=O)N3CC4CN(C(C)C)CC4C3)cc12 (stereo not drawn) [Example 86, (3-ethyl-2-(2-methylpyridin-4-yl)-1H-indol-5-yl)(5-isopropylhexahydropyrrolo[3,4c]pyrrol-2(1H)-yl)methanone] | 28 nM | 469 nM | 1570 nM |  |  |
| CC(C)c1c(-c2ccnc(N)c2)[nH]c2ccc(C(=O)NC3CCC(N(C)C)CC3)cc12 (stereo not drawn) [Example 87, 2-(2-aminopyridin-4-yl)-N-(4-(dimethylamino)cyclohexyl)-3-isopropyl-1H-indole-5-carboxamide] | 27 nM | 1050 nM | 438 nM |  |  |
| COc1ccc(-c2[nH]c3ccc(C(=O)N4CC5CNCC5C4)cc3c2CC(F)(F)F)cc1OC (stereo not drawn) [Example 88, (2-(3,4-dimethoxyphenyl)-3-(2,2,2-trifluoroethyl)-1H-indol-5-yl)(hexahydropyrrolo[3,4-c]pyrrol-2(1H)-yl)methanone hydrochloride] |  | 401 nM |  | 278 nM | 593 nM |
| COc1ccc(-c2[nH]c3ccc(C(=O)N4CC5CN(C(=O)CN(C)C)CC5C4)cc3c2CC(F)(F)F)cc1OC (stereo not drawn) [Example 89, 1-(5-(2-(3,4-dimethoxyphenyl)-3-(2,2,2-trifluoroethyl)-1H-indole-5-carbonyl)hexahydropyrrolo[3,4-c]pyrrol-2(1H)-yl)-2-(dimethylamino)ethan-1-one] | 217 nM | 914 nM | 5860 nM |  |  |
| COc1ccc(-c2[nH]c3ccc(C(=O)N4CC5CN(CC(=O)N(C)C)CC5C4)cc3c2CC(F)(F)F)cc1OC (stereo not drawn) [Example 90, 2-(5-(2-(3,4-dimethoxyphenyl)-3-(2,2,2-trifluoroethyl)-1H-indole-5-carbonyl)hexahydropyrrolo[3,4-c]pyrrol-2(1H)-yl)-N,N-dimethylacetamide] | 344 nM | 866 nM | 4050 nM |  |  |
| Cc1cc(-c2[nH]c3ccc(C(=O)NC4CCN(C(C)C)CC4)cc3c2C(C)C)cc(C)n1 [Example 91, 2-(2,6-dimethylpyridin-4-yl)-3-isopropyl-N-(1-isopropylpiperidin-4-yl)-1H-indole-5-carboxamide] | 2.1 nM | 9.2 nM | 670 nM |  |  |
| Cc1cc(-c2[nH]c3ccc(C(=O)N4CCCN(C)CC4)cc3c2C(C)C)cc(C)n1 [Example 92, (2-(2,6-dimethylpyridin-4-yl)-3-isopropyl-1H-indol-5-yl)(4-methyl-1,4-diazepan-1-yl)methanone] | 3.2 nM | 32 nM | 2470 nM |  |  |
| CCN(CCN(C)C)C(=O)c1ccc2[nH]c(-c3cc(C)nc(C)c3)c(C(C)C)c2c1 [Example 93, N-(2-(dimethylamino)ethyl)-2-(2,6-dimethylpyridin-4-yl)-N-ethyl-3-isopropyl-1H-indole-5-carboxamide] | 1.4 nM | 2.9 nM | 594 nM |  |  |
| Cc1cc(-c2[nH]c3ccc(C(=O)N(C)C)cc3c2C(C)C)cc(C)n1 [Example 94, 2-(2,6-dimethylpyridin-4-yl)-3-isopropyl-N,N-dimethyl-1H-indole-5-carboxamide] | 23 nM | 18 nM | > 50000 nM |  |  |
| Cc1cc(-c2[nH]c3ccc(C(=O)NCCCN(C)C)cc3c2C(C)C)cc(C)n1 [Example 95, N-(3-(dimethylamino)propyl)-2-(2,6-dimethylpyridin-4-yl)-3-isopropyl-1H-indole-5-carboxamide] | 3.6 nM | 50 nM | 516 nM |  |  |
| Cc1cc(-c2[nH]c3ccc(C(=O)NCCN(C)C)cc3c2C(C)C)cc(C)n1 [Example 96, N-(2-(dimethylamino)ethyl)-2-(2,6-dimethylpyridin-4-yl)-3-isopropyl-1H-indole-5-carboxamide] | 7.3 nM | 75 nM | 1500 nM |  |  |
| CNC(=O)c1ccc2[nH]c(-c3cc(C)nc(C)c3)c(C(C)C)c2c1 [Example 97, 2-(2,6-dimethylpyridin-4-1)-3-isopropyl-N-methyl-1H-indole-5-carboxamide] | 30 nM | 45 nM | > 50000 nM |  |  |
| Cc1cc(-c2[nH]c3ccc(C(=O)N4CCN(Cc5ncn(C)n5)CC4)cc3c2C(C)C)cc(C)n1 [Example 98, (2-(2,6-dimethylpyridin-4-yl)-3-isopropyl-1H-indol-5-yl)(4-((1-methyl-1H-1,2,4-triazol-3-yl)methyl)piperazin-1-yl)methanone] | 45 nM | 82 nM | > 50000 nM |  |  |
